The values below come from ChEMBL document CHEMBL1201862, “PubChem BioAssay data set” (2004).

Calls of active or inactive are those of the source. Where only a bound is given, the exact number is not on record here.

Test [1] is described as follows: OVCAR8 cell viability loss – plate reader, dry powder samples, PAX8 project, dose response (AID 743197). It counts as functional, cell-based. To be noted: OVCAR-8.
The nature of test [2]: OVCAR-3 cell viability loss – plate reader, dry powder samples, PAX8 inhibitor project, dose response (AID 743044). It counts as functional, cell-based.
The target of test [3] is Paired box protein Pax-8 (Homo sapiens, UniProt Q06710). Briefly: PAX8 transcriptional activity inhibition in RMG-I – RMG-I cells, luciferase, cherry-pick, dose response (AID 687027).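 Note: luciferase reporter driven by Pax8 target thyroperoxidase promoter measured by SteadyGlo luminescence.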 It counts as functional, cell-based.
Test [4] has as its target T1, Alkaline phosphatase, tissue-nonspecific isozyme (Homo sapiens, UniProt P05186).
T1 sequence (P05186 whole entry): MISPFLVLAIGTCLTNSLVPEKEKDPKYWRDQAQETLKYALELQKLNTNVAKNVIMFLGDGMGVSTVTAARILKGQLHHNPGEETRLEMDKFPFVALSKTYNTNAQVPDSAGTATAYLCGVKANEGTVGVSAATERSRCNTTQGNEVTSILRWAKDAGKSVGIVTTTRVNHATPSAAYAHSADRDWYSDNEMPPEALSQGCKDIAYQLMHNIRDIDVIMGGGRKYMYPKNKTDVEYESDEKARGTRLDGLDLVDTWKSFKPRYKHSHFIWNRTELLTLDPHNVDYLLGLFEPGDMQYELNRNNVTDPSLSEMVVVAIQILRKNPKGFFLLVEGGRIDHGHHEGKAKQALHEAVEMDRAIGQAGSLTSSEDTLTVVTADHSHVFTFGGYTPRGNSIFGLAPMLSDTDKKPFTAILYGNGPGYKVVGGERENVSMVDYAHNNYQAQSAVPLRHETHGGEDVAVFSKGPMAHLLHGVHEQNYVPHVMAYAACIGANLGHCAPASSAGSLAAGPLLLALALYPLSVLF

Test [5] has as its target T2, Mucolipin-3 (Homo sapiens, UniProt Q8TDD5).
T2 sequence (Q8TDD5 whole entry): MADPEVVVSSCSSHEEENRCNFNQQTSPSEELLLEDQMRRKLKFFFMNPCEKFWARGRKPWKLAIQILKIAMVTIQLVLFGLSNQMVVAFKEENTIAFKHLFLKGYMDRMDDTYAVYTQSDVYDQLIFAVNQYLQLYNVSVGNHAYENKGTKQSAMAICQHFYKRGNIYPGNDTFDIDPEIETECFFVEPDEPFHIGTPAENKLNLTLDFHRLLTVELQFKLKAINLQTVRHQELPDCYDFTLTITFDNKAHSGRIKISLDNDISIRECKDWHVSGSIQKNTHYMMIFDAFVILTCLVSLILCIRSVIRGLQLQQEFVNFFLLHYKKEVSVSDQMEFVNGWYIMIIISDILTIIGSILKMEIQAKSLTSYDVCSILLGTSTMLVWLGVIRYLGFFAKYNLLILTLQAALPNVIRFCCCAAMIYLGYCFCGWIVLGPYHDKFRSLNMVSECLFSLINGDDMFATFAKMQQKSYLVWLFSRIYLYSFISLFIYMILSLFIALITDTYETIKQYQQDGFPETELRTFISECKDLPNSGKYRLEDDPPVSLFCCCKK
As to the kind of experiment: Dose response cell-based high-throughput screening assay for agonists of the transient receptor potential channel ML3 (TRPML3). [Related pubchem assays: 1526, 1424, 1448 ]. The test is classed as functional.

The target of test [6] is Ion channel NompC (Danio rerio, UniProt Q7T1G6). As to the kind of experiment: Fluorescence counterscreen assay for TRPML3 agonists: dose response cell-based high-throughput screening assay to identify agonists of the transient receptor potential channel N1 (TRPN1). [Related pubchem assays: 1526, 1424, 1448 ]. It counts as functional.
A short description of test [7]: Dd2 malaria parasite growth inhibition potency – SYBR Green, dry powder samples, dose response (AID 1159566).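 Note: potency for growth inhibition with lower SYBR green DNA signal.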 The test is classed as functional, cell-based.
Test [8] can be described thus: growth inhibition of PfATP4-mutant resistant parasites – NITD609-resistant line, SYBR Green, dry powder, dose response (AID 1159571).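 Note: parasites synchronized at ring stage by sorbitol before testing.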 It counts as functional, cell-based.
Test [9] can be described thus: P. falciparum Dd2 growth inhibitors, dose response, SYBR Green, cherry-picked samples (AID 1159567). It counts as functional, cell-based.
The nature of test [10]: toxicity to human HepG2 hepatoma cells – cell-based, plate reader, dry powder samples, cytotoxicity control, dose response (AID 1159569).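 Note: inhibitor potency with signal falling toward the positive control level.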 The test is classed as functional.
Test [11] in a line: growth inhibition of yeast DHODH-expressing 3D7 parasites – SYBR Green, dry powder samples, dose response (AID 1159570).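 Note: parasite growth measured after 72 hours of compound exposure.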 It counts as functional, cell-based.
Test [12] is described as follows: toxicity to human hepatoma HepG2 cells – cell-based, cherry-picked samples, cytotoxicity control, dose response (AID 1159577). The test is classed as functional.
Test [13] addresses T3, NADPH oxidase 1 (Homo sapiens, UniProt Q9Y5S8).
T3 sequence (Q9Y5S8 whole entry): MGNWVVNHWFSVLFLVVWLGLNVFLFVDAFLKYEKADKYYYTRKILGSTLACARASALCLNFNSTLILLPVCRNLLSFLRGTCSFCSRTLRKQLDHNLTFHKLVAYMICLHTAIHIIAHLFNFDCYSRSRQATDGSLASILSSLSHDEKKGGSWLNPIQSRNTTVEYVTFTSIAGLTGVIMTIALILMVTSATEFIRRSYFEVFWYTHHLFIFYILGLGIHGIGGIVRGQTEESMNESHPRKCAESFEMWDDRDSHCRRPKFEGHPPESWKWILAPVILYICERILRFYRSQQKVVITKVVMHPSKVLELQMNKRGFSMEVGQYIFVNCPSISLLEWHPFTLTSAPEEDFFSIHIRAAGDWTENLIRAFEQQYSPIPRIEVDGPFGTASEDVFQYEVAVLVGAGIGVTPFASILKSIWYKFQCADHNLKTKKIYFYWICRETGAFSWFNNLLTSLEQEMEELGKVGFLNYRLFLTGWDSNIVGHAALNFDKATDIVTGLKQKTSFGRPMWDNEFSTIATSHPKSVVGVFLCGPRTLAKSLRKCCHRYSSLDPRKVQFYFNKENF
It counts as functional, cell-based.

A short description of test [14]: A549 cell cytotoxicity, dose response, cytotoxicity control, plate reader, cherry-pick, antagonist series (AID 743412). The test is classed as functional, cell-based.
For test [15], the system named is HEK293. As to the kind of experiment: EBV LMP1 TES2 canonical NF-kB signalling blockers – cell-based, HEK293, luciferase, cherry-pick, dose response (AID 588343). Conditions: Homo sapiens, HEK293. It counts as functional, Homo sapiens.
For test [16], the system named is HT-1080. As to the kind of experiment: HT1080 cell viability loss – fluorescence readout (AID 620). It counts as functional, cell-based. Conditions: Homo sapiens.
A short description of test [17]: blockers of bursicon-stimulated LGR2 cAMP reporter – cell-based, HEK293, CRE-luciferase reporter, cherry pick, set 2, dose response (AID 743343).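 Note: transfected cells were stimulated with diluted bursicon conditioned medium after compound addition.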 It counts as functional.
The target in test [18] is Luciferin 4-monooxygenase (Photinus pyralis, UniProt P08659). As to the kind of experiment: Counter Screen for Luciferase-based Assay Positives. [Related pubchem assays: 620, 618, 411 ].
A short description of test [19]: blockade of melanocortin 4 receptor signaling – cell-based, plate reader, cherry pick, counter-screen for LGR2 antagonist project, dose response (AID 743444).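 Note: transfected HEK 293 cells stimulated with alpha-MSH peptide; potency of inhibitors of the alpha-MSH evoked signal.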 It counts as functional.
Test [20] in a line: toxicity toward HepG2 liver cells – cell-based, plate reader, cherry-pick, antagonist series, cytotoxicity control, dose response (AID 743416). The test is classed as functional.
A short description of test [21]: viability loss in HEK293 cells – cell-based, plate reader, cherry-picked samples, cytotoxicity control, dose response (AID 743446). The test is classed as functional.
The nature of test [22]: reduced cellular PGC1a acetyl-lysine signal – cell-based, cherry-picked samples, dose response (AID 720514).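 Note: potency may reflect raised or lowered acetylation signal.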 It counts as functional.
Test [23] can be described thus: non-specific 3'UTR reporter inhibition in Clone20-Shn3RL – cell-based, Renilla luciferase, cherry-picked, counter-screen for Shn3 inhibitor project, dose response (AID 624133). The test is classed as functional.
Test [24] in a line: loss of viability in HepG2 cells – cell-based, CellTiter-Glo, cherry-picked, cytotoxicity control for Shn3 inhibitor project, dose response (AID 624134). The test is classed as functional.
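Throughout, for IC50: Cell-based assay with luminescence read-out, IC50 derived from inhibitor dose-response curves; intracellular ROS from endogenous NOX1 in intact HT29 colon cancer cells; potency of inhibitors that lower the ROS luminescence signal.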

Sequence of Ion channel NompC (Q7T1G6 whole entry): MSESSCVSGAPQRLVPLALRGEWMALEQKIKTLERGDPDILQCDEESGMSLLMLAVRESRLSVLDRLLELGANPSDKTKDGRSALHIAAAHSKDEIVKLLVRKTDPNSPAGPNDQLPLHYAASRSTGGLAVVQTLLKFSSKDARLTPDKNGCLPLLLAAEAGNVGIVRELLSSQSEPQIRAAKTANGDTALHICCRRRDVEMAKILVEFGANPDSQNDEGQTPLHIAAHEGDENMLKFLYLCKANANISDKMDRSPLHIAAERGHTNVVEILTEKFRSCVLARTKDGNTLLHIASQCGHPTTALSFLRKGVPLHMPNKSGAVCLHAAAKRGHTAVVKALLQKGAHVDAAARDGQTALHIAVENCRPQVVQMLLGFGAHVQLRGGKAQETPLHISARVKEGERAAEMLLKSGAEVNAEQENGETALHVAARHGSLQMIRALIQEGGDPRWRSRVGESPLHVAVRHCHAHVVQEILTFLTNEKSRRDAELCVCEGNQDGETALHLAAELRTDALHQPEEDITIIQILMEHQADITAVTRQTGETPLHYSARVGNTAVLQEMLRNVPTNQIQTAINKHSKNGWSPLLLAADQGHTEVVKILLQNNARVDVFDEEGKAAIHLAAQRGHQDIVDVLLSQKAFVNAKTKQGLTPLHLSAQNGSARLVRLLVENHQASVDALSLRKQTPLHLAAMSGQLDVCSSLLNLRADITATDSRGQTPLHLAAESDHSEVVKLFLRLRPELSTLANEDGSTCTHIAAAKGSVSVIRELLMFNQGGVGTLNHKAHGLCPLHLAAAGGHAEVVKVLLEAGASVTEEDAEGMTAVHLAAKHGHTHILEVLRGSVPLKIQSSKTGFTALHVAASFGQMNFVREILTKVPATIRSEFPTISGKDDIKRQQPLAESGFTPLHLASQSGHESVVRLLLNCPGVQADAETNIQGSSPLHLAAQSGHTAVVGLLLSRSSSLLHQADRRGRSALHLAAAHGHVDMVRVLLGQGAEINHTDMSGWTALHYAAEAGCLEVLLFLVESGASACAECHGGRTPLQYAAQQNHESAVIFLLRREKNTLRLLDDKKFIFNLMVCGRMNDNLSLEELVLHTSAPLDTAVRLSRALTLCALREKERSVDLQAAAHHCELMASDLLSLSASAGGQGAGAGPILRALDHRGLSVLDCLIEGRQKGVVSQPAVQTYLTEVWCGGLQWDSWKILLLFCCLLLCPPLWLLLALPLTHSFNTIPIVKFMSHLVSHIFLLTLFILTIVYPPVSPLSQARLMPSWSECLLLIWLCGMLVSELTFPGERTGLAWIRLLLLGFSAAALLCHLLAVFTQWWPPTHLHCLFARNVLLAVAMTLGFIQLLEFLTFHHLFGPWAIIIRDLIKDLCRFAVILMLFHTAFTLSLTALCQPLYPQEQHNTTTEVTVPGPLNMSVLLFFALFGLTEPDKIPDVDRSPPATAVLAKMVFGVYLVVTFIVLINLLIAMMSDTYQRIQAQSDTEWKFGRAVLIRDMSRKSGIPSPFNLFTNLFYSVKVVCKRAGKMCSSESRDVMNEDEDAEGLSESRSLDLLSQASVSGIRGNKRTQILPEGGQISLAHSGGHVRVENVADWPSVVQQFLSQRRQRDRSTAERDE
Sequence of Paired box protein Pax-8 (Q06710 whole entry): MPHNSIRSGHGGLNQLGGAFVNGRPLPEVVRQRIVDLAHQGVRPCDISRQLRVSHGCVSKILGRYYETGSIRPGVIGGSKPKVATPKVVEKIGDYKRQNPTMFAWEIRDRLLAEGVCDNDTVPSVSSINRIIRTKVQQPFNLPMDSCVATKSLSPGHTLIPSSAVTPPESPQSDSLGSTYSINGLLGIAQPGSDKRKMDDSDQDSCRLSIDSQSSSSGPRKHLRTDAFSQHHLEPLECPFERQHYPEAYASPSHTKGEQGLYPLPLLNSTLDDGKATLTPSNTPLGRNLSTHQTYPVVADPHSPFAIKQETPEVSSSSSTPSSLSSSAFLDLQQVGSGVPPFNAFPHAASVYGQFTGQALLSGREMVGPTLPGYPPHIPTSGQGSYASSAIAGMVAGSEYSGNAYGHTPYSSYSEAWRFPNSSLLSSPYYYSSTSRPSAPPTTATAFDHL
Sequence of Luciferin 4-monooxygenase (P08659 whole entry): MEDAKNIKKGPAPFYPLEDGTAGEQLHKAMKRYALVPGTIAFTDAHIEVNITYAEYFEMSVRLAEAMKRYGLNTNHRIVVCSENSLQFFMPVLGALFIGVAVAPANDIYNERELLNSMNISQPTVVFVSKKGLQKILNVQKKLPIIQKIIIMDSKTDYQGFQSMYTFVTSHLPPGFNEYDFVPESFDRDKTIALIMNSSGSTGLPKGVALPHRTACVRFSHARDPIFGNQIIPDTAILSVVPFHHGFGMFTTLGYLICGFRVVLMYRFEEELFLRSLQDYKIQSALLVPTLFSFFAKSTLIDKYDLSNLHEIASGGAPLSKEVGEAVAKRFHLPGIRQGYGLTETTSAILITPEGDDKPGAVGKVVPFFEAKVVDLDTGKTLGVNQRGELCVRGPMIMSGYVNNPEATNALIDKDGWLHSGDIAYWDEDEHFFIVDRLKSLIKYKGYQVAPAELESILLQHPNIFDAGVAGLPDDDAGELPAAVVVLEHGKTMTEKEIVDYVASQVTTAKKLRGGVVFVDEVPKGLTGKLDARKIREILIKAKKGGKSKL

Turning to `COc1ccccc1C#Cc1ccc2c(c1)O[C@@H](CN(C)Cc1cncnc1)[C@H](C)CN([C@H](C)CO)S2(=O)=O`, the AC50 in [1] was 29 µM (active); in [2] it was 32.6 µM (active); in test [3], 2.16 µM (active).

With `COc1ccc(-c2nc3ccc(C)cn3c2NCc2ccc3c(c2)OCO3)cc1`, the EC50 in test [4] is on record as > 100 µM (not active).

Consider `CCNC(=S)N(Cc1cccs1)Cc1cc2cc(OCC)ccc2nc1O`, for which the EC50 in [5] and in [6] was > 29.9 µM (not active) each time.

As for `C[C@@H]1CN([C@@H](C)CO)C(=O)c2cccc(NC(=O)c3ccc(-c4nccs4)cc3)c2O[C@@H]1CN(C)C(=O)Nc1cccc2ccccc12`, the AC50 in test [7] was 0.334 µM (active); in test [8], 0.733 µM (active); in test [9], 2.9 µM (active); in test [10] it was 53.3 µM (active); in test [11] it was 0.956 µM (active); in [12], > 39 µM (inactive).

On to `C=C(NNc1c(Cl)c(Cl)nc(C(=O)O)c1Cl)c1ccc(O)cc1`, for which the half-inhibitory concentration (IC50) in test [13] is 4.45 µM (active).

Take `c1ccc(-c2nc(-c3ccccn3)no2)cc1`: the AC50 is 6.2 µM (active) in test [14]; 1.68 µM (active) in test [15]; 2.65 µM (active) in test [17]; 2.47 µM (active) in test [19]; 9.19 µM (active) in test [20]; 7.31 µM (active) in test [21]. Also, the EC50 was > 50 µM (not active) in [16] and 0.35 µM (active) in [18].

As to `CCN(CC(=O)NCc1ccc(Cl)cc1)C(=O)CSCC(=O)Nc1ccc(C)cc1`, the AC50 in [22] was 5.23 µM (active).

Turning to `CCOC(=O)C1CCN(C(=O)C(C)N(c2ccc(Oc3ccccc3)cc2)S(C)(=O)=O)CC1` (stereo not drawn), the concentration at half-maximal activity (AC50) is 9.34 µM (active) in test [23] and > 70 µM (inactive) in [24]. Further, the values for the EC50 in [5] and in [6] were 6.8 µM (active) and > 29.9 µM (not active), respectively.

For `CCOC(=O)c1c(NC(=O)COc2ncnc3ccccc23)sc(C)c1C`, the EC50 in [4] is > 100 µM (not active).

`Oc1ccc(-c2nc(-c3ccccc3)c(-c3ccccc3)[nH]2)cc1`: the IC50 in [13] is recorded as > 17 µM (not active).
